# Measurements: patent US12528777B2, “Quinazolinones derivatives for treatment of non-alcoholic fatty liver disease, preparation and use thereof” (Council of Scientific and Industrial Research, priority 2020, dated 2026)
# “Also recorded” adds a separate entry of the source.
# Columns and labels:
# [1] = system: ATGL; assay: In vivo study: ATGL level in mouse liver; set-up: species or system C57BL/6 mice; details: 30 mg/kg orally
# Protocol: 6-8 weeks old healthy female C57BL/6 mice (average weight: 25 grams) were taken for the study. These were then divided into three groups comprising of three mice per group (Control, compound 107 fed for 8 hours and compound 107 fed for 16 hours). Mice were fed with 30 mg/kg of compound 107 orally. The compound was dissolved in 25% DMSO and 75% PBS. The control group was fed only with the solvent in which the compound was dissolved. Post 8 hours and 16 hours of feeding, mice were sacrificed and a portion of the excised liver tissue was homogenized in lysis buffer containing protease inhibitor cocktail. The homogenate was centrifuged at 20,000 g for 30 minutes following which the supernatant containing the protein lysate was collected. The lysate was then diluted accordingly and protein estimation was carried out by Bradford Assay. This was followed by Western Blotting wherein the levels of ATGL and COP1 were checked. Actin was used as the loading control.
# [2] = biological target: COP1 (Homo sapiens, UniProt Q8NHY2); assay: Western blot of COP1 level in HepG2 cells; type: cell-based; details: 24 hours, dose dependent
# Protocol: HepG2 cells were treated with the compounds 9, 10, 11, 17, 18, 23, 24, 115, 123, 127, 139,107, 171, 179, 73, 187, 211, 215, 219, 223, 232, 238, 241, 244, 258, 299, 308, and 333a, (10 μM for initial screening and 50 nM, 100 nM, 200 nM, 500 nM, 1 μM and 5 μM for dose dependent assays) for 24 hours. After removing media from the cells, the wells were washed with 1×PBS twice to remove any remnant media. Cells were then lysed in lysis buffer containing 50 mM Tris-HCl (pH 7.4), 100 mM NaCl, 1 mM EDTA, 1 mM EGTA, 1% Triton X-100 and protease inhibitor cocktail (Millipore, Billierica, MA, USA). Following centrifugation at 20,000 g for 20 minutes, the protein solution was extracted from the cells. Protein was estimated using Bradford assay. Bradford's reagent (BioRad) was diluted in 1:4 ratio in double distilled water. 2 μl of protein sample was added to 100 μl of the reagent and absorbance was measured at 595 nm. […] of protein was diluted in lysis buffer. 1× loading buffer diluted from 5× stock containing 250 mM Tris-HCl (pH 6.8), 10% SDS, 50% glycerol, 0.1% bromophenol Blue and 10% β-mercaptoethanol was added. The protein samples were then heated at 95° C. for 10 minutes, cooled and centrifuged at 12,000 g for 2 minutes prior to loading.
# For western blotting, the proteins were resolved in 10% SDS PAGE (discontinuous buffer system). […]
# [3] = biological target: COP1 (Mus musculus, UniProt Q9R1A8); assay: COP1 level in primary mouse hepatocytes (western blot); type: cell-based; set-up: endogenous in cells; host or cells: primary mouse hepatocytes (C57bl/6); details: 24 hours
# Protocol: To further strengthen the efficiency of the compounds 9 and 107, primary hepatocytes were isolated from mice and these compounds were treated in a dose dependent manner for 24 hours. Primary hepatocytes and adipose tissue explants were isolated from mice and subjected to compound treatment for 24 hours at the doses of 100 nM, 500 nM and 1 μM. Post cell harvesting, western blot was carried out with the lysate to check the ATGL level. ATGL and COP1 antibodies were used. Actin served the purpose of a loading control.
# 1. Hepatocytes—2-4 months old chow-fed black male mouse (C57bl/6) was sacrificed using chloroform (SRL) and was cleaned with 70% ethanol. […] Blood was drawn from the heart in order to prevent backflow into liver while perfusion. The butterfly cannula was inserted into the PV and 20 ml of HBSS (Hank's Balanced Salt Solution; 5 mM KCl, 0.4 mM KH2PO4, 4 mM NaHCO3, 140 mM NaCl, 0.3 mM Na2HPO4, 6 mM Glucose, HEPES, 0.5 mM MgCl2·6H2O, 0.4 mM MgSO4·7H2O, 0.5 mM EDTA; not containing 1 mM CaCl2)) was allowed to pass through the liver (Perfusion) at a constant flow rate of 3 ml/min, maintained by Masterflex digital peristaltic pump (Cole-Parmer). The IVC was cut as soon as the passage of the buffer through the liver began, so that blood and perfusate from liver is drained through the IVC. The liver blanched and became pale in color upon this treatment. […]
# Sequence of COP1 (Mus musculus, UniProt Q9R1A8) (Q9R1A8 whole entry): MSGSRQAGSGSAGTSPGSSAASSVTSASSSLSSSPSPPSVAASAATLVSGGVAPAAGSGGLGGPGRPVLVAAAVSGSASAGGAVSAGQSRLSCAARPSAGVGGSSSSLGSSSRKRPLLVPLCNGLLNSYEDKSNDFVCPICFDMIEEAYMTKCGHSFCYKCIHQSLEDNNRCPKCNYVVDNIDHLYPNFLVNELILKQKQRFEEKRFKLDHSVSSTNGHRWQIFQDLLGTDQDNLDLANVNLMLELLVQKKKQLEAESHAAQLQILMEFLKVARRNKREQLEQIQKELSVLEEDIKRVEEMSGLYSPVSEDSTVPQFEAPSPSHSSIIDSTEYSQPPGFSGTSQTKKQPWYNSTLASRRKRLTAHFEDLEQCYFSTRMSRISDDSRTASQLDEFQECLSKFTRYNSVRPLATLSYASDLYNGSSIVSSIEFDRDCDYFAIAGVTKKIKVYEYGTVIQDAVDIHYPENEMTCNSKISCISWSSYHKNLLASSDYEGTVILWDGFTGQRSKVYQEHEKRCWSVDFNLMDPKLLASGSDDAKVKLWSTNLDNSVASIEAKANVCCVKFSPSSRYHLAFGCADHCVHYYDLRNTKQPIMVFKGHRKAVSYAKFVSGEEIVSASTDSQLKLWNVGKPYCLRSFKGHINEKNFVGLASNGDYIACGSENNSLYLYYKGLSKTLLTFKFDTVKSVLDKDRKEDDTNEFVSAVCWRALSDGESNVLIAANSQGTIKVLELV
# Sequence of COP1 (Homo sapiens, UniProt Q8NHY2) (Q8NHY2 whole entry): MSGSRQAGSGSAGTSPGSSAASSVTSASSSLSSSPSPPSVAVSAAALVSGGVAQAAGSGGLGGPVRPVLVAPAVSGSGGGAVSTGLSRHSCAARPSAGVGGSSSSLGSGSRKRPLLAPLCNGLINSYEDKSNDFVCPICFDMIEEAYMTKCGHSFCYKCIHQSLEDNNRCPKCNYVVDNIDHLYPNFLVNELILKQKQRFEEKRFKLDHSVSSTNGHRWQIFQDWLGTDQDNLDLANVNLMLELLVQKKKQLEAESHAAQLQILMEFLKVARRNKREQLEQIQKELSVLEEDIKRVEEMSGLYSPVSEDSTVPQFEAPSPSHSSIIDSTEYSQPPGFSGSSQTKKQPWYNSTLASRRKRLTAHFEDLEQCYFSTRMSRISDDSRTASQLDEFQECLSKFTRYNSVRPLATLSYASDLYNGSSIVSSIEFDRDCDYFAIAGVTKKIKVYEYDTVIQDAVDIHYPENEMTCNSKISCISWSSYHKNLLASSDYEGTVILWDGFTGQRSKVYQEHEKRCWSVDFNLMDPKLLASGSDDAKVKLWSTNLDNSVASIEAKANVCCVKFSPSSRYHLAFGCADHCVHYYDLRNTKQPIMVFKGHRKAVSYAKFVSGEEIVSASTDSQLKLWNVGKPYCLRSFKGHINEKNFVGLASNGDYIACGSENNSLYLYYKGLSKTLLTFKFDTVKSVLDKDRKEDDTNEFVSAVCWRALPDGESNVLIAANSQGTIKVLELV
SMILES,"ATGL level in liver, 8 hours after feeding ([1]; 8 hours)","ATGL level in liver, 16 hours after feeding ([1]; 16 hours)",COP1 level in HepG2 cells [2],COP1 level in primary mouse hepatocytes [3]
"COCCn1c(C)nc2ccc(NC(=O)Nc3cccc(C(C)=O)c3)cc2c1=O [Compound 107, 1-(3-acetylphenyl)-3-(3-(2-methoxyethyl)-2-methyl-4-oxo-3,4-dihydroquinazolin-6-yl)urea]",modestly increase ATGL level; also recorded: no significant impact,modestly increase ATGL level; also recorded: effective in increasing ATGL and COP1 levels,,
"COCCn1c(CN2CCCCC2)nc2ccc(NC(=O)Nc3cccc(C(C)=O)c3)cc2c1=O [Compound 238, 1-(3-acetylphenyl)-3-(3-(2-methoxyethyl)-4-oxo-2-(piperidin-1-ylmethyl)-3,4-dihydroquinazolin-6-yl)urea]",,,most potent in increasing ATGL and COP1 levels; also recorded: increase in ATGL and COP1 levels,increase ATGL and COP1 levels dose dependently; also recorded: increased only with 5 μM concentration
